These results are taken from ChEMBL document CHEMBL3817765, “Doxifluridine-conjugated 2-5A analog shows strong RNase L activation ability and tumor suppressive effect” (Bioorg Med Chem, 2016).

Calls of active or inactive are those of the source. The calls are words filed in the database; no cut-off is given here.

Data set [1] deals with T1, 2-5A-dependent ribonuclease (Homo sapiens, UniProt Q05823).
T1 sequence (Q05823 whole entry): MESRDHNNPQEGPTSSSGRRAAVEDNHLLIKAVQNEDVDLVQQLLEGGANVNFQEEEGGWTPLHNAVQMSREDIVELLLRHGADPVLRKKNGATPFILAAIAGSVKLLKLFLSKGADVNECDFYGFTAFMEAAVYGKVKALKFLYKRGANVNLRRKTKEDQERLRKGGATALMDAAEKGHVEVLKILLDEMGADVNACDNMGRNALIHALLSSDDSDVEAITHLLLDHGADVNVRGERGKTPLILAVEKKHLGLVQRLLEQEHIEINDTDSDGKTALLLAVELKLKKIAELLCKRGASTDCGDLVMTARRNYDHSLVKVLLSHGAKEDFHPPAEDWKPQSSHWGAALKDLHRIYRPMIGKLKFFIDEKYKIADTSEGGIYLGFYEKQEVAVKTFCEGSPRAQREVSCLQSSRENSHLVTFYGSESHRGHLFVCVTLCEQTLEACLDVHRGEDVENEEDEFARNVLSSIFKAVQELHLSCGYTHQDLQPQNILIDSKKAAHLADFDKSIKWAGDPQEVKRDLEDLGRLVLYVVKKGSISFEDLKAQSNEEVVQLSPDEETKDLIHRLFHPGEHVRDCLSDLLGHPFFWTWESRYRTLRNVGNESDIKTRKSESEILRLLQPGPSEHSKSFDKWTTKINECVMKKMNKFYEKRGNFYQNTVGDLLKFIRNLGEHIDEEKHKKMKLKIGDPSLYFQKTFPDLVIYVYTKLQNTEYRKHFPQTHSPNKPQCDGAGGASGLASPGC
Nature of the data set: Induction of recombinant human RNase L activity expressed in Escherichia coli using F-5'-r(C11U2C7)-3' as substrate by polyacrylamide gel electrophoresis.

The nature of data set [2]: Half life of the compound assessed as snake venom phosphodiesterase-mediated compound hydrolysis at 9 uM by HPLC analysis. Type of data set: ADME. The conditions noted are these: serpentes.
In data set [3] the test system is HeLa. Nature of the data set: Cytotoxicity against human HeLa cells assessed as cell growth at 1 uM after 6 to 24 hrs by counting chamber analysis relative to control. Type of data set: functional. The conditions noted are these: read-out: Activity.
For data set [4], the system named is HeLa. Nature of the data set: Cytotoxicity against human HeLa cells assessed as cell growth inhibition after 6 to 24 hrs by counting chamber analysis. The data set is classed as functional, cell-based.
For data set [5], the target named is T2, 2-5A-dependent ribonuclease (Homo sapiens) (UniProt Q05823).
T2 sequence (whole entry): T1 sequence (Q05823 whole entry)
The data set can be described thus: Ratio of p5'A2'p5'A2'p5'A2'p5'A EC50 to compound EC50 for recombinant human RNase L activity.

The subject of data set [6] is HeLa. The data set can be described thus: Cytotoxicity against human HeLa cells assessed as cell growth inhibition at 0.1 to 1 uM after 6 to 24 hrs by counting chamber analysis. Type of data set: functional, cell-based.

As to `Nc1ncnc2c1ncn2[C@@H]1O[C@H](COP(=O)(O)O[C@@H]2[C@H](O)[C@@H](COP(=O)(O)O[C@@H]3[C@H](O)[C@@H](COP(=O)(O)O[C@@H]4[C@H](O)[C@@H](CO)O[C@H]4n4cnc5c(N)ncnc54)O[C@H]3n3cnc4c(N)ncnc43)O[C@H]2n2cnc3c(N)ncnc32)[C@@H](O)[C@H]1O`, the concentration for a half-maximal effect (EC50) (commonly the concentration at which the effect is half-maximal) in data set [1] is listed as “Not Active”.

On to `Cc1nc2c(N)ncnc2n1[C@@H]1O[C@H](COP(=O)(O)O[C@@H]2[C@H](O)[C@@H](COP(=O)(O)O[C@@H]3[C@H](O)[C@@H](COP(=O)(O)O[C@@H]4[C@H](O)[C@@H](C)O[C@H]4n4cc(F)c(=O)[nH]c4=O)O[C@H]3n3cnc4c(N)ncnc43)O[C@H]2n2cnc3c(N)ncnc32)[C@@H](O)[C@H]1O`, for which, in data set [2], the half-life (in general, how long it takes for the measured level to halve) at 9 µM came to 9 min. Further, the growth at 1 µM in the data set on HeLa [3] was 25%. The “growth inhibition (GI)” value in the data set on HeLa [4] was “Dose-dependent effect”. Also, the concentration giving a half-maximal response (EC50) in data set [1] (read-out: EC50) is 0.45 nM. Further, the Ratio EC50 in data set [5] amounted to 28.9.

Regarding `Nc1ncnc2c1ncn2[C@@H]1O[C@H](COP(=O)(O)O[C@@H]2[C@H](O)[C@@H](COP(=O)(O)O[C@@H]3[C@H](O)[C@@H](COP(=O)(O)O[C@@H]4[C@H](O)[C@@H](COP(=O)(O)O)O[C@H]4n4cnc5c(N)ncnc54)O[C@H]3n3cnc4c(N)ncnc43)O[C@H]2n2cnc3c(N)ncnc32)[C@@H](O)[C@H]1O`, the half-life at 9 µM in data set [2] came to 6.4 min. Further, in the data set on HeLa [6], the “growth inhibition (GI)” value was “inactive”. The half-maximal effective concentration (EC50) in data set [1] (read-out: EC50) was 12.9 nM.

Regarding `Cc1nc2c(N)ncnc2n1[C@@H]1O[C@H](COP(=O)(O)O[C@@H]2[C@H](O)[C@@H](COP(=O)(O)O[C@@H]3[C@H](O)[C@@H](COP(=O)(O)O[C@H]4[C@@H](O)[C@H](n5ccc(=O)[nH]c5=O)O[C@@H]4CO)O[C@H]3n3cnc4c(N)ncnc43)O[C@H]2n2cnc3c(N)ncnc32)[C@@H](O)[C@H]1O`, the 50% effective concentration (EC50) in data set [1] (read-out: EC50) came out at 134 nM. Besides, the Ratio EC50 in data set [5] came out at 0.1.

Consider `Cc1nc2c(N)ncnc2n1[C@@H]1O[C@H](COP(=O)(O)O[C@@H]2[C@H](O)[C@@H](COP(=O)(O)O[C@@H]3[C@H](O)[C@@H](COP(=O)(O)O[C@@H]4[C@H](O)[C@@H](CO)O[C@H]4n4ccc(=O)[nH]c4=O)O[C@H]3n3cnc4c(N)ncnc43)O[C@H]2n2cnc3c(N)ncnc32)[C@@H](O)[C@H]1O`, for which the 50% effective concentration (EC50) in data set [1] (read-out: EC50) was found to be 2.4 nM. Further, the Ratio EC50 in data set [5] is 5.4.

Consider `Cc1nc2c(N)ncnc2n1[C@@H]1O[C@H](COP(=O)(O)O[C@@H]2[C@H](O)[C@@H](COP(=O)(O)O[C@@H]3[C@H](O)[C@@H](COP(=O)(O)O[C@@H]4[C@H](O)[C@@H](CO)O[C@H]4n4cnc5c(N)ncnc54)O[C@H]3n3cnc4c(N)ncnc43)O[C@H]2n2cnc3c(N)ncnc32)[C@@H](O)[C@H]1O`, for which, in data set [1] (read-out: EC50), the concentration for a half-maximal effect (EC50) is 2.3 nM. For the same compound, the Ratio EC50 in data set [5] is 5.6.

As to `Cc1nc2c(N)ncnc2n1[C@@H]1O[C@H](COP(=O)(O)O[C@@H]2[C@H](O)[C@@H](COP(=O)(O)O[C@@H]3[C@H](O)[C@@H](COP(=O)(O)O[C@@H]4[C@H](O)[C@@H](COP(=O)(O)O)O[C@H]4n4ccc(=O)[nH]c4=O)O[C@H]3n3cnc4c(N)ncnc43)O[C@H]2n2cnc3c(N)ncnc32)[C@@H](O)[C@H]1O`, the EC50 in data set [1] (read-out: EC50) came out at 2.7 nM. The Ratio EC50 in data set [5] is 4.8.

On to `C[C@H]1O[C@@H](n2cc(F)c(=O)[nH]c2=O)[C@H](O)[C@@H]1O`, for which, in the data set with HeLa [4], the “growth inhibition (GI)” value was “Dose-dependent effect”.

In the case of `Nc1ncnc2c1ncn2[C@@H]1O[C@H](COP(=O)(O)O[C@@H]2[C@H](O)[C@@H](COP(=O)(O)O[C@@H]3[C@H](O)[C@@H](COP(=O)(O)O[C@@H]4[C@H](O)[C@@H](COP(=O)(O)O)O[C@H]4n4ccc(=O)[nH]c4=O)O[C@H]3n3cnc4c(N)ncnc43)O[C@H]2n2cnc3c(N)ncnc32)[C@@H](O)[C@H]1O`, the EC50 in data set [1] (read-out: EC50) was found to be 84 nM. Also, the Ratio EC50 in data set [5] is 0.15.

On to `Cc1nc2c(N)ncnc2n1[C@@H]1O[C@H](COP(=O)(O)O[C@@H]2[C@H](O)[C@@H](COP(=O)(O)O[C@@H]3[C@H](O)[C@@H](COP(=O)(O)O[C@H]4[C@@H](O)[C@H](n5cnc6c(N)ncnc65)O[C@@H]4CO)O[C@H]3n3cnc4c(N)ncnc43)O[C@H]2n2cnc3c(N)ncnc32)[C@@H](O)[C@H]1O`, for which the concentration giving a half-maximal response (EC50) in data set [1] (read-out: EC50) came to 20.3 nM. For the same compound, in data set [5], the Ratio EC50 turned out to be 0.64.
